Experimental data taken from ChEMBL document CHEMBL1201862, “PubChem BioAssay data set” (2004).
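Interpolation was linear, between the two tested concentrations surrounding the appropriate level; five concentrations were tested over 48 hours in 96-well plates. GI50: concentration for 50% inhibition of growth.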 Active and inactive are the calls of the source. No stated cut-off is given here; in the data, active = GI50 up to about 1.1 µM and inactive = higher.

Key:
Assay in all cases: NCI anticancer screen, dose series, 48 h
CCRF-CEM = test system: CCRF-CEM
BT-549 = test system: BT-549
SK-OV-3 = test system: SK-OV-3
HCC 2998 = test system: HCC 2998
HCT-116 = test system: HCT-116
HOP-92 = test system: HOP-92
786-0 = test system: 786-0
MCF7 = test system: MCF7
OVCAR-5 = test system: OVCAR-5
SK-MEL-28 = test system: SK-MEL-28
OVCAR-8 = test system: OVCAR-8
DU-145 = test system: DU-145
HCT-15 = test system: HCT-15
MDA-MB-435 = test system: MDA-MB-435
SF-539 = test system: SF-539
NCI/ADR-RES = test system: NCI/ADR-RES
SR = test system: SR
MOLT-4 = test system: MOLT-4
LOX IMVI = test system: LOX IMVI
PC-3 = test system: PC-3

SMILES | GI50 (CCRF-CEM) | GI50 (BT-549) | GI50 (SK-OV-3) | GI50 (HCC 2998) | GI50 (HCT-116) | GI50 (HOP-92) | GI50 (786-0) | GI50 (MCF7) | GI50 (OVCAR-5) | GI50 (SK-MEL-28) | GI50 (OVCAR-8) | GI50 (DU-145) | GI50 (HCT-15) | GI50 (MDA-MB-435) | GI50 (SF-539) | GI50 (NCI/ADR-RES) | GI50 (SR) | GI50 (MOLT-4) | GI50 (LOX IMVI) | GI50 (PC-3)
COC(=O)C12OCC34C(CC5C(C)=C(O)C(=O)CC5(C)C3C(O)C1O)OC(=O)C(OC(=O)C=C(C)C)C24 (stereo not given) | 307 µM (inactive) | 0.26 µM (active) | > 500 µM (inactive) | 453 µM (inactive) | > 489 µM (inactive) | 234 µM (inactive) | 0.275 µM (active) | 256 µM (inactive) | > 500 µM (inactive) | 423 µM (inactive) | > 500 µM (inactive) | 0.318 µM (active) | > 500 µM | < 0.215 µM (active) | > 500 µM (inactive) | > 500 µM (inactive) | 215 nM (active) | 297 µM (inactive) | 283 µM (inactive) | 0.23 µM (active)
COC(=O)[C@@H]1Cc2cc(O)c(O)cc2C2(CCN(C)CC2)O1 | > 10 µM (inactive) | > 10 µM (inactive) | > 10 µM (inactive) | > 10 µM (inactive) | > 10 µM (inactive) | > 10 µM (inactive) | > 10 µM (inactive) | > 10 µM (inactive) | > 10 µM (inactive) | > 10 µM (inactive) | > 10 µM (inactive) | > 10 µM (inactive) | > 10 µM | > 10 µM (inactive) | > 10 µM (inactive) | > 10 µM (inactive) | > 10000 nM (inactive) | > 10 µM (inactive) | > 10 µM (inactive) | > 10 µM (inactive)
CCOc1cccc(/C=N\c2ccccc2SSc2ccccc2/N=C\c2cccc(OCC)c2O)c1O | 3.32 µM (inactive) | 1.58 µM (inactive) | 23.2 µM (inactive) | 17.2 µM (inactive) | 1.73 µM (inactive) | 11.5 µM (inactive) | 7.6 µM (inactive) | 0.326 µM (active) | 4.56 µM (inactive) | 12.4 µM (inactive) | 2.52 µM (inactive) | 16.6 µM (inactive) | 3.44 µM | 11.5 µM (inactive) | 26.5 µM (inactive) | 3.55 µM (inactive) | 4250 nM (inactive) | 3.38 µM (inactive) | 4.47 µM (inactive) | 3.17 µM (inactive)
Cc1c(Cl)ccc2c1NC(=O)C2(O)CC(=O)c1ccc(Cl)cc1Cl (stereo not given) | 10.3 µM (inactive) | > 50 µM (inactive) | > 45.9 µM (inactive) | > 50 µM (inactive) | > 50 µM (inactive) | 23.6 µM (inactive) | 27.2 µM (inactive) | > 50 µM (inactive) | > 50 µM (inactive) | > 50 µM (inactive) | > 50 µM (inactive) | > 50 µM (inactive) | > 50 µM | > 50 µM (inactive) | 17.7 µM (inactive) | > 50 µM (inactive) | 264 nM (active) | 22.5 µM (inactive) | > 50 µM (inactive) | > 50 µM (inactive)
